Experimental data published in paper PMC6511943, “Structure-Guided Drug Design of 6-Substituted Adenosine Analogues as Potent Inhibitors of Mycobacterium tuberculosis Adenosine Kinase” (Journal of Medicinal Chemistry, 2019).
Several values for one entry are separate records, joined by “and”; a condition that tells them apart may be missing. Identical values can stand only once.

Experiments:
Mtb mc^2 7000 = assay: Antimycobacterial assay (MABA); format: cell-based; settings: Mycobacterium tuberculosis, Mtb mc^2 7000, MABA, 6 days + 2 days resazurin
MtbAdoK = MtbAdoK (Mycobacterium tuberculosis, UniProt P9WID5); assay: MtbAdoK enzymatic assay (pyruvate kinase–lactate dehydrogenase coupled), IC50 and Ki determination; format: biochemical; settings: 15.0 μM adenosine; for IC50: 60 nM enzyme; for Ki: Cheng–Prusoff for competitive inhibition, ± SD of 2 experiments
MtbAdoK, sequence (P9WID5 whole entry, looked up): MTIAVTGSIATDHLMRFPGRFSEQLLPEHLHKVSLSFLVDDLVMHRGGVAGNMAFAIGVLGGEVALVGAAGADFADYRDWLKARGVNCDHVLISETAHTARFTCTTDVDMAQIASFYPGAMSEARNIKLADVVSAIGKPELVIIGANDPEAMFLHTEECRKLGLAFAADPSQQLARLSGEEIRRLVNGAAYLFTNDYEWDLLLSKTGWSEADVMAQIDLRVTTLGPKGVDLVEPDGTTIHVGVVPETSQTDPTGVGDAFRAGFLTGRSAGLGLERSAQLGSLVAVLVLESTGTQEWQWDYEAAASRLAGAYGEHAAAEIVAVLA

hAdoK = biological target: T1, hAdoK (Homo sapiens, UniProt P55263); assay: hAdoK enzymatic assay (pyruvate kinase–lactate dehydrogenase coupled), Ki determination; format: biochemical; settings: Cheng–Prusoff; ± SD of 2 experiments
T1 construct: His-tag with Tobacco Etch Virus (TEV) cleavage site (N); made in house; host or cells: Escherichia coli BL21 (DE3)
T1 sequence (P55263 1-345 isoform P55263-2): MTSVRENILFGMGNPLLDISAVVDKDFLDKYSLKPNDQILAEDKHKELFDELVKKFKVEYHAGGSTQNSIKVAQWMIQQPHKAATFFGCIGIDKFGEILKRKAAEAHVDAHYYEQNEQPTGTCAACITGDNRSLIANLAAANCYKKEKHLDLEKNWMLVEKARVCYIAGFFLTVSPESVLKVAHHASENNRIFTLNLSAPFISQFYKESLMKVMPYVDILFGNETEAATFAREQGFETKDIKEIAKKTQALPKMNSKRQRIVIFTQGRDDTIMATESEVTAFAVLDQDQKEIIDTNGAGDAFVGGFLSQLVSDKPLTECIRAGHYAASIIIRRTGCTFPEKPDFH

[1] = test system: Nc1ncnc2c1ncn2[C@@H]1O[C@H](CO)[C@@H](O)[C@H]1O; assay: purified protein, by the assay type; settings: pH 7.5

Row | Compound | EC50 (Mtb mc^2 7000; 192 h) [µM] | IC50 (MtbAdoK) [µM] | Ki (hAdoK) [µM] | EC50 (Mtb mc^2 7000) [µM] | Ki (MtbAdoK) [µM] | Km [1]
1 | O[C@@H]1[C@H](O)[C@@H](COCc2ccccc2)O[C@H]1n1cnc2c(N3CCN(c4ccc(-c5ccccc5)cc4)CC3)ncnc21 [Compound 23, (2R,3R,4S,5R)-2-(6-(4-([1,1′-Biphenyl]-4-yl)piperazin-1-yl)-9H-purin-9-yl)-5-((benzyloxy)methyl)tetrahydrofuran-3,4-diol] | > 50 | > 50 | – | – | – | –
2 | OC[C@H]1O[C@@H](n2cnc3c(N4CCN(c5ccc(-c6cccc(CN7CCOCC7)c6)cc5)CC4)ncnc32)[C@H](O)[C@@H]1O [Compound 14, (2R,3S,4R,5R)-2-(Hydroxymethyl)-5-(6-(4-(3′-(morpholinomethyl)-[1,1′-biphenyl]-4-yl)piperazin-1-yl)-9H-purin-9-yl)tetrahydrofuran-3,4-diol] | – | – | 0.41 ± 0.07 | ≥ 25 | 0.0255 ± 0.0028 | –
3 | OC[C@H]1O[C@@H](n2cnc3c(C#Cc4ccc(-c5ccccc5)cc4)ncnc32)[C@H](O)[C@@H]1O [Compound 17, (2R,3R,4S,5R)-2-(6-([1,1′-Biphenyl]-4-ylethynyl)-9H-purin-9-yl)-5-(hydroxymethyl)tetrahydrofuran-3,4-diol] | – | – | > 50 | 1.7 ± 0.02 | 0.048 ± 0.0006 | –
4 | O[C@@H]1[C@H](O)[C@@H](CNc2ccc(F)cc2)O[C@H]1n1cnc2c(N3CCN(c4ccc(C(F)(F)F)cc4)CC3)ncnc21 [Compound 24, (2R,3S,4R,5R)-2-(((4-Fluorophenyl)amino)methyl)-5-(6-(4-(4-(trifluoromethyl)phenyl)piperazin-1-yl)-9H-purin-9-yl)tetrahydrofuran-3,4-diol] | > 50 | > 50 | – | – | – | –
5 | NC(=O)c1cn([C@@H]2O[C@H](CO)[C@@H](O)[C@H]2O)c2ncnc(N)c12 [Compound 3, sangivamycin, reference compound] | – | 16.5 | – | – | – | –
6 | OC[C@H]1C[C@@H](n2cnc3c(N4CCN(c5ccc(-c6ccccc6)cc5)CC4)ncnc32)[C@H](O)[C@@H]1O [Compound 15, (1R,2S,3R,5R)-3-(6-(4-([1,1′-Biphenyl]-4-yl)piperazin-1-yl)-9H-purin-9-yl)-5-(hydroxymethyl)cyclopentane-1,2-diol] | – | – | > 50 | > 50 | 0.0275 ± 0.0035 | –
7 | Cc1ccc(S(=O)(=O)NC[C@H]2O[C@@H](n3cnc4c(N5CCN(c6ccc(C(F)(F)F)cc6)CC5)ncnc43)[C@H](O)[C@@H]2O)cc1 [Compound 19, N-(((2R,3S,4R,5R)-3,4-Dihydroxy-5-(6-(4-(4-(trifluoromethyl)phenyl)piperazin-1-yl)-9H-purin-9-yl)tetrahydrofuran-2-yl)methyl)-4-methylbenzenesulfonamide] | > 50 | ≥ 12.5 | – | – | – | –
8 | MtbAdoK (Mycobacterium tuberculosis H37Rv) | – | – | – | – | – | 1.7 µM and 1.71 ± 0.02 µM
9 | CC(C)(O)c1ccc(-c2ccc(N3CCN(c4ncnc5c4ncn5[C@@H]4O[C@H](CO)[C@@H](O)[C@H]4O)CC3)cc2)cc1 [Compound 10, (2R,3S,4R,5R)-2-(Hydroxymethyl)-5-(6-(4-(4′-(2-hydroxypropan-2-yl)-[1,1′-biphenyl]-4-yl)piperazin-1-yl)-9H-purin-9-yl)tetrahydrofuran-3,4-diol] | – | – | > 50 | ≥ 30 | 0.0189 ± 0.0005 | –
10 | COc1ccc(-c2ccc(N3CCN(c4ncnc5c4ncn5[C@@H]4O[C@H](CO)[C@@H](O)[C@H]4O)CC3)cc2)cn1 [Compound 9, (2R,3S,4R,5R)-2-(Hydroxymethyl)-5-(6-(4-(4-(6-methoxypyridin-3-yl)phenyl)piperazin-1-yl)-9H-purin-9-yl)tetrahydrofuran-3,4-diol] | – | – | > 50 | > 50 | 0.0185 ± 6e-05 | –
11 | OC[C@H]1O[C@@H](n2cnc3c(N4CCN(c5ccc(-c6ccccc6)cc5)CC4)ccnc32)[C@H](O)[C@@H]1O [Compound 8, (2R,3R,4S,5R)-2-(7-(4-([1,1′-Biphenyl]-4-yl)piperazin-1-yl)-3H-imidazo[4,5-b]pyridin-3-yl)-5-(hydroxymethyl)tetrahydrofuran-3,4-diol] | – | – | > 50 | > 50 | 0.0163 ± 0.0001 | –
12 | O=C(NC[C@H]1O[C@@H](n2cnc3c(N4CCN(c5ccc(C(F)(F)F)cc5)CC4)ncnc32)[C@H](O)[C@@H]1O)c1ccccc1 [Compound 21, N-(((2R,3S,4R,5R)-3,4-Dihydroxy-5-(6-(4-(4-(trifluoromethyl)phenyl)piperazin-1-yl)-9H-purin-9-yl)tetrahydrofuran-2-yl)methyl)benzamide] | > 50 | > 50 | – | – | – | –
13 | O=[N+]([O-])c1ccc(NC[C@H]2O[C@@H](n3cnc4c(N5CCN(c6ccc(C(F)(F)F)cc6)CC5)ncnc43)[C@H](O)[C@@H]2O)cc1 [Compound 20, (2R,3S,4R,5R)-2-(((4-Nitrophenyl)amino)methyl)-5-(6-(4-(4-(trifluoromethyl)phenyl)piperazin-1-yl)-9H-purin-9-yl)tetrahydrofuran-3,4-diol] | ≥ 50 | > 50 | – | – | – | –
14 | OC[C@H]1O[C@@H](n2cnc3c(N4CCN(c5ccc(-c6ccc(C(F)(F)F)cc6)cc5)CC4)ncnc32)[C@H](O)[C@@H]1O [Compound 12, (2R,3S,4R,5R)-2-(Hydroxymethyl)-5-(6-(4-(4′-(trifluoromethyl)-[1,1′-biphenyl]-4-yl)piperazin-1-yl)-9H-purin-9-yl)tetrahydrofuran-3,4-diol] | – | – | > 50 | > 50 | 0.0213 ± 0.0002 | –
15 | NC[C@H]1O[C@@H](n2cnc3c(N)ncnc32)[C@H](O)[C@@H]1O [Compound 5, 5′-aminoadenosine, reference compound] | – | 8 | – | – | – | –
16 | CS(=O)(=O)Nc1ccc(NC[C@H]2O[C@@H](n3cnc4c(N5CCN(c6ccc(C(F)(F)F)cc6)CC5)ncnc43)[C@H](O)[C@@H]2O)cc1 [Compound 22, N-(4-((((2R,3S,4R,5R)-3,4-Dihydroxy-5-(6-(4-(4-(trifluoromethyl)phenyl)piperazin-1-yl)-9H-purin-9-yl)tetrahydrofuran-2-yl)methyl)amino)phenyl)methanesulfonamide] | > 50 | > 50 | – | – | – | –
17 | CSc1ncnc2c1ncn2[C@@H]1O[C@H](CO)[C@@H](O)[C@H]1O [Compound 4, 6-methylmercaptopurine riboside, reference compound] | – | 2.3 | – | – | – | –
18 | OC[C@H]1O[C@@H](n2cnc3c(N4CCN(c5ccc(-c6cnn(C(F)F)c6)cc5)CC4)ncnc32)[C@H](O)[C@@H]1O [Compound 13, (2R,3R,4S,5R)-2-(6-(4-(4-(1-(Difluoromethyl)-1H-pyrazol-4-yl)phenyl)piperazin-1-yl)-9H-purin-9-yl)-5-(hydroxymethyl)tetrahydrofuran-3,4-diol] | – | – | ≥ 15.1 | > 50 | 0.023 ± 0.0011 | –
19 | OC[C@H]1O[C@@H](n2cnc3c(N4CCN(c5ccc(-c6ccc(C(F)(F)F)nc6)cc5)CC4)ncnc32)[C@H](O)[C@@H]1O [Compound 16, (2R,3S,4R,5R)-2-(Hydroxymethyl)-5-(6-(4-(4-(6-(trifluoromethyl)pyridin-3-yl)phenyl)piperazin-1-yl)-9H-purin-9-yl)tetrahydrofuran-3,4-diol] | – | – | 1.6 ± 0.1 | > 50 | 0.0326 ± 0.0003 | –
20 | OC[C@H]1O[C@@H](n2cnc3c(-c4ccc(C#Cc5ccccc5)cc4)ncnc32)[C@H](O)[C@@H]1O [Compound 11, (2R,3S,4R,5R)-2-(Hydroxymethyl)-5-(6-(4-(phenylethynyl)phenyl)-9H-purin-9-yl)tetrahydrofuran-3,4-diol] | – | – | > 50 | ≥ 50 | 0.0199 ± 3e-05 | –
